Values joined by “and” are separate entries in the source; they are usually repeats but may differ in a detail not shown here. Equal entries are not always repeated. ± gives the expanded uncertainty stated by the source.
Test: mn = molality of the nth substance listed, in mol/kg
Settings: 100 kPa, Liquid; for speed of sound: Frequency=3 MHz, Single path-length method; for mass density: Vibrating tube method

Nc1ccc(S(=O)(=O)Nc2nccs2)cc1 [N-(2-thiazolyl)sulfanilamide] + O
Settings	mass density, 288.15 K	mass density, 293.15 K	mass density, 298.15 K	mass density, 303.15 K	mass density, 308.15 K	speed of sound, 288.15 K [m/s]	speed of sound, 293.15 K [m/s]	speed of sound, 298.15 K [m/s]	speed of sound, 303.15 K [m/s]	speed of sound, 308.15 K [m/s]
m1 = 0.001	999.21 ± 0.49 kg/m3	998.28 ± 0.49 kg/m3	997.13 ± 0.49 kg/m3	995.71 ± 0.49 kg/m3	994.08 ± 0.49 kg/m3	1466.6 ± 1.8	1482.9 ± 1.9	1497.1 ± 1.9	1509.6 ± 1.9	1520.2 ± 1.9
m1 = 0.005	999.71 ± 0.49 kg/m3	998.79 ± 0.49 kg/m3	997.61 ± 0.49 kg/m3	996.18 ± 0.49 kg/m3	994.54 ± 0.49 kg/m3	1467.2 ± 1.8	1483.5 ± 1.9	1497.7 ± 1.9	1510 ± 1.9	1520.6 ± 1.9
m1 = 0.01	1000.27 ± 0.49 kg/m3 and 1000.33 ± 0.49 kg/m3	999.36 ± 0.5 kg/m3 and 999.41 ± 0.49 kg/m3	998.19 ± 0.5 kg/m3 and 998.23 ± 0.49 kg/m3	996.81 ± 0.49 kg/m3 and 996.77 ± 0.49 kg/m3	995.18 ± 0.49 kg/m3 and 995.14 ± 0.49 kg/m3	1468.5 ± 1.9	1484.5 ± 1.9	1498.7 ± 1.9	1510.7 ± 1.9	1521.7 ± 1.9
